Test results from patent publication US20250320458A1, “CARDIOMYOCYTE SUBTYPES AND METHODS OF MAKING AND USING” (University Health Network, priority 2021, published 2025).

Columns and labels:
Type in all cases: cell-based, human
aSHF progenitors [1] = experiment: Extended BMP agonist/antagonist treatment of aSHF progenitors, day 20 flow cytometry and cell numbers; settings: treatment extended additional 48 hours, then cultured 12 days; day 20 (FIGS. 5F and 5H)
Protocol: Cells of early stages (day 3 to day 6) were dissociated with TrypLE for 3-5 minutes at room temperature to single cells, which were then filtered and transferred to IMDM media. Day 20 EBs were dissociated with 0.5 mg/ml collagenase type 2 (Worthington) in HANKs buffer for 1.5 hours at 37° C. The filtered day 20 cells were then transferred to FACS buffer consisting of PBS with 5% fetal calf serum (Wisent) and 0.02% sodium azide. The following antibodies were used for staining samples obtained from various stages of differentiation: anti-PDGFRa-PE (R&D Systems, 1:20), anti-CD235a/b-APC (BD PharMingen, 1:200), anti-SIRPa-PeCy7 (Biolegend, 1:2000), anti-CXCR4 (Biolegend, 1:100), anti-CDId-PE (Biolegend, 1:100), anti-CD49c-PE (ThermoFisher, 1:100), anti-cardiac isoform of CTNT (ThermoFisher Scientific, 1:2000), or anti-myosin light chain 2 (Abcam, 1:1000). For unconjugated primary antibodies, the following secondary antibodies were used for detection: goat anti-mouse IgG-APC (BD Pharmigen, 1:250), or donkey anti-rabbit IgG-PE (Jackson ImmunoResearch, 1:250). Detailed antibody information is described in Table 2.
To stain live cells with cell-surface protein, dissociated single cells were stained for 15 minutes at room temperature in FACS buffer and washed twice before they were subject to further analyses. For intracellular staining, cells were fixed for 15 min at 4° C. in PBS containing 4% PFA followed by permeabilization using 90% methanol for 15 min at 4° C. The permeabilized cells were washed with PBS containing 0.5% BSA (Sigma) twice and stained with unconjugated primary antibodies in FACS buffer for 18 hours at 4° C. Stained cells were washed with PBS with 0.5% BSA and stained with proper secondary antibodies in FACS buffer for 30 mins at 4° C. Following washing steps, stained cells were processed with the Fortessa (BD) and analyzed using FlowJo software (Tree Star). For cell sorting, stained cells were kept in StemPro-34 media and sorted using Influx (BD), FACSAriall (BD), MoFlo-XDP (BD) and FACSAria Fusion (BD). Data were analyzed using FlowJo software (Tree Star).
The above observation that the aSHF progenitors express genes involved in Bmp signaling is consistent with the known role of this pathway in the development of right ventricular cardiomyocytes from aSHF progenitors in the mouse. […] The notable exception is the genes for the ligands BMP2 and BMP4, which are also highly expressed in the FHF lineage (FIG. 5B). To determine if BMP plays a role in the differentiation of the aSHF progenitors to derivative lineages, the day 5 cells were treated with either a pathway agonist (10 ng/mL BMP4) or antagonist (0.1 μM LDN) and then the population was analyzed 24 hours after the treatments. FHF and pSHF progenitors were included in the analyses, and ROH was added to the cultures of pSHF and aSHF progenitor, given that both populations display ALDH activity. […] Inhibition of the pathway did, however, lead to upregulation of genes associated with pharyngeal progenitors (FOXC2 and SIX1) (FIG. 5D) and downregulation of those indicative of cardiomyocyte development (UNC45B and GATA4) (FIG. 5E). To further investigate the consequences of BMP manipulation, the agonist/antagonist treatment was extended for an additional 48 hours and then the treated cells were cultured for 12 days to promote cardiomyocyte development. FHF and pSHF progenitors also were cultured for 20 days without manipulation of BMP signaling. […]

aSHF progenitors [2] = experiment: BMP pathway agonist/antagonist treatment of day 5 aSHF progenitors, RT-qPCR 24 hours after treatment; settings: for expression of genes indicative of aSHF (FGF8 and ISL1), pSHF (HOXB1) and FHF (HAND1) fates in the aSHF population: 10 ng/mL BMP4 or 0.1 μM LDN, ROH added, 24 hours after treatment (FIG. 5C)
Protocol: (§1) RNA extraction was performed using the RNAqueous-micro Kit (Invitrogen). Purified RNA was treated with RNase-free DNase (Invitrogen), and then reverse transcribed into cDNA using oligo (dT) primers and random hexamers and iscript Reverse Transcriptase (ThermoFisher). QRT-PCR was performed on an EP Real-Plex MasterCycler (Eppendorf) using QuantiFast SYBR Green PCR kit (QIAGEN). The copy number of each gene was determined based on a standard curve plotted with human genome DNA with known copy number. The relative expression levels of genes were obtained by normalizing their copy number to that of TBP.
The above observation that the aSHF progenitors express genes involved in Bmp signaling is consistent with the known role of this pathway in the development of right ventricular cardiomyocytes from aSHF progenitors in the mouse. […] The notable exception is the genes for the ligands BMP2 and BMP4, which are also highly expressed in the FHF lineage (FIG. 5B). To determine if BMP plays a role in the differentiation of the aSHF progenitors to derivative lineages, the day 5 cells were treated with either a pathway agonist (10 ng/mL BMP4) or antagonist (0.1 μM LDN) and then the population was analyzed 24 hours after the treatments. FHF and pSHF progenitors were included in the analyses, and ROH was added to the cultures of pSHF and aSHF progenitor, given that both populations display ALDH activity. […] Inhibition of the pathway did, however, lead to upregulation of genes associated with pharyngeal progenitors (FOXC2 and SIX1) (FIG. 5D) and downregulation of those indicative of cardiomyocyte development (UNC45B and GATA4) (FIG. 5E). To further investigate the consequences of BMP manipulation, the agonist/antagonist treatment was extended for an additional 48 hours and then the treated cells were cultured for 12 days to promote cardiomyocyte development. FHF and pSHF progenitors also were cultured for 20 days without manipulation of BMP signaling. All 3 progenitor populations generated TNNT2^+/SIRPa^+ cardiomyocytes by day 20 of differentiation (FIGS. 5F and 5G). In addition to the cardiomyocytes, the aSHF-derived population also contained PDGFR-beta^+ mesenchymal cells (FIG. 5F).

aSHF cells = experiment: Extended BMP agonist/antagonist treatment of aSHF cells, day 20 RT-qPCR; settings: aSHF cells treated with LDN
Protocol: as §1
The above observation that the aSHF progenitors express genes involved in Bmp signaling is consistent with the known role of this pathway in the development of right ventricular cardiomyocytes from aSHF progenitors in the mouse. […] The notable exception is the genes for the ligands BMP2 and BMP4, which are also highly expressed in the FHF lineage (FIG. 5B). To determine if BMP plays a role in the differentiation of the aSHF progenitors to derivative lineages, the day 5 cells were treated with either a pathway agonist (10 ng/mL BMP4) or antagonist (0.1 μM LDN) and then the population was analyzed 24 hours after the treatments. […]

[3] = tested on: day 4 pSHF cells (ALDH CXCR4−); experiment: Retinol treatment of isolated day 4 pSHF cells, RT-qPCR of progenitor markers; settings: retinol 2 μM vs DMSO, 24 hours
Protocol: (§2) At day 1, the EBs were transferred to mesoderm induction media consisting of base media, 5 ng/mL rhbFGF (R&D), and various concentration of rhBMP4 (R&D) and rhActivinA (R&D) as described in the results section. At day 3, the EBs were transferred to the media consisting of base media, 2 μM Wnt inhibitor IWP2 (TOCRIS) and 10 ng/ml rhVEGF (R&D). From day 5 to day 12, the EBs were transferred to base media with 5 ng/mL rhVEGF. From day 12 to day 20, the EBs were transferred to base media and cultured in a normoxic environment (5% CO2, 20% O2). For pSHF lineage differentiation, the day 4 sorted pSHF cells were treated with 2 μM Retinol (Sigma) from day 4 to day 8. Similarly, the sorted aSHF cells were treated with 2 μM Retinol and 10 ng/mL rhBMP4 from day 5 to day 8 of differentiation.
as §1, with “TBP. […]” for “TBP.”

day 5 aSHF cells = experiment: Retinol treatment of day 5 aSHF cells, RT-qPCR of RA-responsive genes; settings: ROH for 24 hours vs DMSO, RT-qPCR day 6 (FIG. 4J)
Protocol: as §2, with “Similarly, the sorted aSHF cells were treated with 2 μM Retinol and 10 ng/mL rhBMP4 from day 5 to day 8 of differentiation.” left out
RNA extraction was performed using the RNAqueous-micro Kit (Invitrogen). […] QRT-PCR was performed on an EP Real-Plex MasterCycler (Eppendorf) using QuantiFast SYBR Green PCR kit (QIAGEN). The copy number of each gene was determined based on a standard curve plotted with human genome DNA with known copy number. […]
The pSHF lineage expressed ALDH1A2 and RDH10, from the day 3 mesoderm stage onward, whereas expression of these genes was not detected until day 4 of differentiation in the aSHF lineage (FIG. 4G). These patterns correlate well with ALDH activity, which was detected in more than 90% of the days 4 and 5 pSHF cells. […] ALDH was not detected in the day 5 FHF population. […]

| Molecule | PDGFR-beta+ cells in the aSHF-derived population (number / size of fraction) (aSHF progenitors [1]) | proportion of cardiomyocytes in the aSHF-derived population (aSHF progenitors [1]) | expression of genes indicative of aSHF (FGF8 and ISL1), pSHF (HOXB1) and FHF (HAND1) fates in the aSHF population (aSHF progenitors [2]) | expression of genes associated with pharyngeal progenitors (FOXC2 and SIX1) (aSHF progenitors [2]; 0.1 μM LDN, 24 hours after treatment (FIG. 5D)) | expression of genes indicative of cardiomyocyte development (UNC45B and GATA4) (aSHF progenitors [2]; 0.1 μM LDN, 24 hours after treatment (FIG. 5E)) | expression of the ventricular cardiomyocyte markers IRX4 and MY1.2 (aSHF cells) | levels of PDGFRB (aSHF cells) | expression of the RA responsive gene CYP26A1 and the pSHF progenitor markers HOXA1 and HOXB1 ([3]; RT-qPCR (FIG. 3H)) | expression of aSHF progenitor markers FGF10, FOXC1 and FOXC2 ([3]; RT-qPCR (FIG. 3I)) | expression of the RA-responsive gene CYP26A1 and HOXB1 (day 5 aSHF cells) | number of cardiomyocytes in the aSHF-derived population (aSHF progenitors [1]) |
| --- | --- | --- | --- | --- | --- | --- | --- | --- | --- | --- | --- |
| c1ccc2c(-c3cnn4cc(-c5ccc(N6CCNCC6)cc5)cnc34)ccnc2c1 [LDN, LDN 193189] | increased | reduced | did not alter | upregulation | downregulation | decrease | elevated | – | – | – | – |
| CC1=C(/C=C/C(C)=C/C=C/C(C)=C/CO)C(C)(C)CCC1 [ROH, Retinol] | – | – | – | – | – | – | – | upregulation | downregulated | upregulation | – |
| BMP4: Recombinant human BMP4 (R&D), BMP pathway agonist (protein, UniProt P12644 293-408, looked up) Bone morphogenetic protein 4: SPKHHSQRARKKNKNCRRHSLYVDFSDVGWNDWIVAPPGYQAFYCHGDCPFPLADHLNSTNHAIVQTLVNSVNSSIPKACCVPTELSAISMLYLDEYDKVVLKNYQEMVVEGCGCR | reducing | increased | did not alter | – | – | – | – | – | – | – | increased |
